Measured values as given in patent US20050014215A1, “Method and medium for the detecting/identifying microorganisms with esterase and/or r osidase and/or peptidase and/or sulfatase and/or phosphatase activity” (priority 2000, published 2005).
Read-outs that look alike come from different tables or passages of the source.

What was measured:
[1] = Appearance of stock solutions of 2-alizarin octanoate in solvent/Tween 20 (Example 7); assay type: physicochemical; conditions: 60% Tween 20
Description: The substrate tested is 1,2-dihydroxyanthraquinone octanoate (2-alizarin octanoate). Different stock solutions of substrate are prepared with DMF, DMSO, methanol or methoxyethanol as solvent and in the presence of Tween® 20 in all cases.

[2] = Substrate solubility with different FASE (Example 8); assay type: physicochemical
Description: Different stock solutions of substrate are prepared in DMSO in the presence of Tween® 20, Tween® 80 (polyethoxylated sorbitan monooleate), Tween® 60 (polyethoxylated sorbitan monostearate) or Tween® 65 (polyethoxylated sorbitan tristearate). A volume corresponding to a final concentration of 500 mg/l of substrate is then added to a supercooled gelled medium, namely MacConkey medium.

## 1,2-dihydroxyanthraquinone octanoate [2-alizarin octanoate]
[1]; 40% DMF
  Appearance of the stock solution: total
[1]; 40% DMSO
  Appearance of the stock solution: precipitate
[1]; 40% methanol
  Appearance of the stock solution: precipitate
[1]; 40% methoxyethanol
  Appearance of the stock solution: total

## polyethoxylated sorbitan monolaurate containing 20 units of ethylene oxide (EO) [TWEEN® 20]
[2]; 40% DMSO, 60% Tween
  substrate solubility: good substrate solubility

## polyethoxylated sorbitan monooleate (20 EO) [TWEEN® 80]
[2]
  substrate solubility: good substrate solubility

## polyethoxylated sorbitan monostearate (20 EO) [TWEEN® 60]
[2]
  substrate solubility: good substrate solubility
